# Test results reported in patent US10450299B2, “Substituted quinazoline derivatives as DNA methyltransferase inhibitors” (Pierre Fabre Medicament, priority 2015, dated 2019).
# Tests used:
# [1] = target: T1, His-DNMT1 (182 kDa, human) (Homo sapiens, UniProt P26358); assay: DNMT1 assay (tritiated SAM Flashplate methylation assay); assay type: biochemical
# T1 construct: His; made in house
# Experimental: His-DNMT1 (182 kDa, human) was cloned, expressed and purified as described in Halby et al. (ChemBioChem 2012, 13, 157-65). The reaction was performed in a 10 μL total reaction volume in low volume NBS™ 384-well microplates (Corning), containing the tested compound (up to 1% DMSO), 1 μM of a SAM/[methyl-^3H] SAM (3 TBq/mmol, PerkinElmer) mix in a ratio of 3-to-1 (isotopic dilution 1*:3), 0.3 μM of biotinylated hemimethylated DNA duplex (5′-GATmCGCmCGATGmCGmCGAATmCGmCGATmCGATGmCGAT-3′ and BIOT-5′-[…]-3′), and 90 nM of DNMT1 in methylation buffer (20 mM HEPES pH 7.2, 1 mM EDTA, 50 mM KCl, 25 μg/mL BSA). The reaction was incubated at 37° C. for 2 hours. 8 μL are then transferred into a streptavidin 96-well scintillant coated Flashplate™ (PerkinElmer) containing 190 μL of 20 μM SAH in 50 mM Tris-HCl pH 7.4. The Flashplate™ was agitated at room temperature for 1 hour, washed three times with 200 μL of 0.05% Tween®-20 in 50 mM Tris-HCl pH 7.4, and read in 200 μL of 50 mM Tris-HCl pH 7.4 on TopCount NXT™ (PerkinElmer).
# [2] = target: T2, human C-terminal DNMT3A (a.a. 623-908) (Homo sapiens, UniProt Q9Y6K1); assay: DNMT3A assay (restriction-based fluorescence assay); assay type: biochemical
# T2 construct: The human C-terminal DNMT3A (a.a. 623-908); made in house
# Excerpt: DNMT3A enzyme inhibition was adapted from the restriction-based fluorescence assay protocol described in Ceccaldi et al. (ChemBioChem 2011, 12, 1337-45). Briefly, a 5′-labelled biotin oligonucleotide is hybridized to its complementary strand labelled with 6-carboxyfluorescein at the 3′-end into a 384 well microplate (black Optiplates; Perkin Elmer) pre-coated with avidin. The duplex contains a unique CpG site overlapping with a restriction site of a methylation sensitive restriction enzyme. The human C-terminal DNMT3A (a.a. 623-908), produced as described in Gros et al. (Nucleic Acids Research 2013 41(19):e185), was added in each well (200 ng/well) and mixed with the chemical compounds at desired concentrations and freshly prepared AdoMet (20 μM final concentration) to start the reaction in a total volume of 50 μL. After 1 hour incubation at 37° C. each well were washed three times with PBS, Tween-20 0.05%, NaCl (500 mM) and three more times with PBST. Specific fluorescent signals were detected with the methylation-sensitive restriction enzyme HpyCH4IV (NEB) as described and measured on a Perkin Elmer Envision detector. The percentage of inhibition is reported. The formula used to calculate the percentage of inhibition is [(X−Y)/X]×100, where X is the signal determined in the absence of the inhibitor and Y is the signal obtained in the presence of the inhibitor. The concentration at which 50% of efficacy of inhibition is observed (EC50) was determined by analysis of a concentration range of the tested compound in triplicates. The non-linear regression fittings with sigmoidal dose-response (variable slope) were performed with GraphPad Prism 4.03 (GraphPad Software).
# [3] = test system: KG-1 human leukemia cells; assay: Anti-proliferative activity on KG-1 (ATPLite cell viability); assay type: cell-based; conditions: KG-1 cells
# Experimental: Anti-Proliferative Activity. (on KG-1)
# KG-1 human leukemia cells were obtained from the ATCC (USA) and cultivated in RPMI 1640 medium (with HEPES and Glutamine, BE12-115F, Lonza, France) supplemented with, respectively, 20% and 15% foetal calf serum (Lonza, France), at 37° C. and under 5% CO2. To measure the anti-proliferative properties of tested molecules, 2×10^4 cells are seeded at day 0 in a 96 wells plate. The compounds to be tested, stored at −20° C. as 10^−2 M stock solution in 100% DMSO, are freshly diluted on day 1 in RPMI 1640 medium, before adding a dose range of 3.2 nM to 10 μM to the cells. This treatment is repeated on day 2 and 3, and on day 4 cell viability is assessed using the ATPLite™ kit from Perkin (ATPlite™ 1 Step Luminescence Assay System, ref 3016739), following the provider instructions. The raw data are analyzed with GraphPad Prism software (v4.03) to generate EC50 values corresponding to the compound concentrations giving 50% reduction in cell viability. The values presented are the mean results of at least two independent experiments. […]
# At the end of the experiment, cell viability was evaluated by determining the level of ATP released by viable cells.
# EC50 values were determined with curve fitting analysis method (non linear regression model with a sigmoid dose response, variable Hill slope coefficient) provided by the Prism Software (GraphPad). Results were expressed as average EC50 values (concentration of tested compound that inhibits 50% of the maximum effect for the considered compound).
# [4] = test system: luciferase reporter gene under the control of the partially methylated CMV promoter in KG-1 cell line; assay: Gene expression (CMV-Luc reactivation) in KG-1 cells; assay type: cell-based, human; conditions: 24 h, induction factor vs DMSO control, mean of 3 experiments ± standard error
# Experimental: Gene Expression. (CMV-Luc Reactivation)
# KG-1 cell line, stably transfected with the luciferase Firefly (Luc+ from pGL3 by Promega) reporter gene under the control of the CMV promoter (from pEGFP-N1 by Clontech) partially methylated (50%), is seeded at 20,000 cell per well in 96-well plate. After 24 h of incubation in the presence of the compounds or the solvant DMSO, the induction of the promoter is measured by quantification of luciferase with the Brite-lite™ assay system (Perkin Elmer) according to the manufacturer protocol. The luminescence is measured on EnVision™ Multilabel Plate Reader (Perkin Elmer) and the data are expressed in induction factor compared to the DMSO control condition.
# T1 sequence (P26358 whole entry): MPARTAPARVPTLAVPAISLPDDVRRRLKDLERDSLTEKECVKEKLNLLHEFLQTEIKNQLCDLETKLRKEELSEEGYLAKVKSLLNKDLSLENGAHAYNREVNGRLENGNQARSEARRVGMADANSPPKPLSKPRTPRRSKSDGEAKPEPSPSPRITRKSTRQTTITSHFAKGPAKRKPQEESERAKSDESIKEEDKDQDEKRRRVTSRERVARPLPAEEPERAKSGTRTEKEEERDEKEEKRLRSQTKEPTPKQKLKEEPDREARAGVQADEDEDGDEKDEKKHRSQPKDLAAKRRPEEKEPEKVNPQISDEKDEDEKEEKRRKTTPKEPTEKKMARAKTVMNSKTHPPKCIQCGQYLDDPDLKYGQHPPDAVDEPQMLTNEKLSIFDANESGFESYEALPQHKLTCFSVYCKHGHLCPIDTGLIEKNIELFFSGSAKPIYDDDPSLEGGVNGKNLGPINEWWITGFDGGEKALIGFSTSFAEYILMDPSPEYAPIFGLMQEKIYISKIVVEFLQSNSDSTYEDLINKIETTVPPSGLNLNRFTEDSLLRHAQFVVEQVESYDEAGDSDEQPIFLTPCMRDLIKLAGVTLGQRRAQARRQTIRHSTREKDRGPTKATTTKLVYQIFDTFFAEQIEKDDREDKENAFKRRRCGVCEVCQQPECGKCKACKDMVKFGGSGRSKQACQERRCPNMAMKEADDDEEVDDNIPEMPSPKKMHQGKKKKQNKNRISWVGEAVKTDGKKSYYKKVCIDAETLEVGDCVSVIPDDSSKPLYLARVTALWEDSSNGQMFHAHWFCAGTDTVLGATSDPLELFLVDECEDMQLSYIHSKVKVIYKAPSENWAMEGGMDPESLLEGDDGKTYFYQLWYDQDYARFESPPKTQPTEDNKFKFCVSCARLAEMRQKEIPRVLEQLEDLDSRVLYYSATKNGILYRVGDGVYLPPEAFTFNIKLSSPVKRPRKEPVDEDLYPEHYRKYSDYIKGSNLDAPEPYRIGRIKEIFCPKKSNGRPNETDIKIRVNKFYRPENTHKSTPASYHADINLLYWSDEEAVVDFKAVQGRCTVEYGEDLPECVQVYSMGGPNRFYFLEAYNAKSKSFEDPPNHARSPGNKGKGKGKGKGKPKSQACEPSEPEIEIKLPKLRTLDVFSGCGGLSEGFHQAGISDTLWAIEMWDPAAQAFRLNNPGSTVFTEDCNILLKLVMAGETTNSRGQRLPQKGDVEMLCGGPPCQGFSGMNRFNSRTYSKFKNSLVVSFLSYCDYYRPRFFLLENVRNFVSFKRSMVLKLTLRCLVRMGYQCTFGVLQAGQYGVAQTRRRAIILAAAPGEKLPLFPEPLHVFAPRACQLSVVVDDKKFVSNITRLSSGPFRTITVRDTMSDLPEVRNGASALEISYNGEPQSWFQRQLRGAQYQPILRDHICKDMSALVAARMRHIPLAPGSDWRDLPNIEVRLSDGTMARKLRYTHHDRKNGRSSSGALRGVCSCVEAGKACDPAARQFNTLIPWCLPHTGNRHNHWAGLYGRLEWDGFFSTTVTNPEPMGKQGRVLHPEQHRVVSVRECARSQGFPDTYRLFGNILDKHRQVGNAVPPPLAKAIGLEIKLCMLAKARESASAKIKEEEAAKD
# T2 sequence (Q9Y6K1 627-912): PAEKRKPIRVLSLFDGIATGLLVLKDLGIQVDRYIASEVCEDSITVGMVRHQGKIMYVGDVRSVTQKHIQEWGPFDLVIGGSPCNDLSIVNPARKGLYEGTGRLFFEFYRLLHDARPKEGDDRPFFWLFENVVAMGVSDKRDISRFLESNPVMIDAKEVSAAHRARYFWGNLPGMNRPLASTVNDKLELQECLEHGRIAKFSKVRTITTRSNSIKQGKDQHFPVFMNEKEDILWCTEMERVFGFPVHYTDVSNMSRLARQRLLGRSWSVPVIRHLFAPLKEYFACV
smiles,measurement,setting,value
"COc1cc2c(NCCNc3cccc4ccccc34)nc(N3CCN(c4ccccc4)CC3)nc2cc1OCC1CCN(CCNc2ccnc3ccccc23)CC1 [F, N^1-(6-methoxy-2-(4-phenylpiperazin-1-yl)-7-((1-(2-(quinolin-4-ylamino)ethyl)piperidin-4-yl)methoxy)quinazolin-4-yl)-N^2-(naphtalen-1-yl)ethane-1,2-diamine]",EC50,[1],11.7 µM
same,inhibition at 10 µM,[1]; compound at 10 μM,45%
same,inhibition at 32 µM,[1]; compound at 32 μM,93%
same,inhibition at 1 µM,[2]; compound at 1 μM,75%
same,inhibition at 3.2 µM,[2]; compound at 3.2 μM,84%
same,inhibition at 0.1 µM,"[3]; compound at 0.1 μM, read-out: % proliferation inhibition 0.1 μM",2%
same,inhibition at 1 µM,"[3]; compound at 1 μM, read-out: % proliferation inhibition 1 μM",31.9%
same,inhibition at 5 µM,"[3]; compound at 5 μM, read-out: % proliferation inhibition 5 μM",99.6%
same,inhibition at 10 µM,"[3]; compound at 10 μM, read-out: % proliferation inhibition 10 μM",99.9%
same,"Reactivation fold of luciferase gene reporter, 0.1 μM",[4]; compound at 0.1 μM,1.1 ± 0.0 fold
same,"Reactivation fold of luciferase gene reporter, 1 μM",[4]; compound at 1 μM,4.4 ± 0.4 fold
same,"Reactivation fold of luciferase gene reporter, 5 μM",[4]; compound at 5 μM,1.0 ± 0.8 fold
same,"Reactivation fold of luciferase gene reporter, 10 μM",[4]; compound at 10 μM,0.0 ± 0.0 fold
same,melting point,,180 to 181 °C
